Values quoted from earlier work as cited in patent US20230002726A1, “METHODS OF IN-OVO SCREENING OF ANTI-CANCER THERAPIES” (ICHILOV TECH LTD., priority 2020, published 2023).

System: MSI-low tumors
Settings: stated as known; cited from earlier work

Substance: Pembrolizumab [Keytruda]
- known effectiveness: ineffective
